Laboratory results as given in patent publication US7399472B2, “Vaccines” (Smithkline Beecham Biologicals, priority 1999, dated 2008).

What was measured:
erythrocytes = test: Haemolysis assay for saponins; settings: substantially pure samples
Procedure: Fresh blood from guinea pigs is washed with phosphate buffered saline (PBS) 3 times in a desk-top centrifuge. After resuspension to the original volume the blood is further diluted 10 fold in PBS. • 2. 50 μl of this blood suspension is added to 800 μl of PBS containing two-fold dilutions of surfactant or saponin. • 3. After 8 hours the haemolysis is assessed visually or by measuring the optical density of the supernatant. The presence of a red supernatant, which absorbs light at 570 nm indicates the presence of haemolysis. • 4. The results are expressed as the concentration of the first saponin dilution at which hemolysis no longer occurs.
For the purposes of his invention the saponin adjuvant preparation is haemolytic if it lyses the erythrocytes at a concentration of less than 0.1%. As means of reference, substantially pure samples of QuilA, QS21, QS7.

Lipo-OspA = format: in vivo, Balb/c mice; settings: 14 days after nasal boost with 5 μg lipo-OspA; 20 μg CpG 1001 and/or 5 μg QS21; compared with PBS
influenza virus = test system: influenza virus; set-up: species or system Balb/c mice; settings: mouse, in vivo

Compound | haemolytic saponin as defined in this assay (erythrocytes) | intranasal boosting of systemic antibodies to Lipo-OspA (OspA specific IgG and LA2 titres) (Lipo-OspA) | intranasal boosting of IgG or HAI antibodies to Flu strains (influenza virus)
β-escin | haemolytic |  | 
C[C@@H]1CC[C@@]2(OC1)O[C@H]1[C@@H](O)[C@H]3[C@@H]4CC[C@H]5C[C@@H](O[C@@H]6O[C@H](CO)[C@H](O[C@@H]7O[C@H](CO)[C@@H](O)[C@H](O[C@@H]8OC[C@@H](O)[C@H](O)[C@H]8O)[C@H]7O[C@@H]7O[C@H](CO)[C@H](O)[C@H](O[C@@H]8O[C@H](CO)[C@@H](O)[C@H](O)[C@H]8O)[C@H]7O)[C@H](O)[C@H]6O)[C@H](O)C[C@]5(C)[C@H]4CC[C@]3(C)[C@H]1[C@@H]2C [Digitonin] | haemolytic |  | 
CC1(C)[C@@H](O[C@H]2O[C@H](C(=O)O)[C@@H](O)[C@H](O)[C@H]2O[C@@H]2O[C@H](C(=O)O)[C@@H](O)[C@H](O)[C@H]2O)CC[C@]2(C)[C@H]3C(=O)C=C4[C@@H]5C[C@@](C)(C(=O)O)CC[C@]5(C)CC[C@@]4(C)[C@]3(C)CC[C@@H]12 [glycyrrhizic acid] | non haemolytic |  | 
QS21 | haemolytic | improve significantly | do not improve
